Data on eight molecules can be found in US20090221653A1, “7-(2-amino-1-hydroxy-ethyl)-4-hydroxybenzothiazol-2(3H)-one-derivatives as beta2 adrenoreceptor agonists” (AstraZeneca AB, priority 2005, published 2009).

One experiment has as its target T1, Adrenergic β2 (Homo sapiens, UniProt P07550).
T1 construct: endogenous in cells; host or cells: H292 cells
Kind of experiment: Alternative Adrenergic β2 Mediated cAMP Production in H292 cells (AlphaScreen cAMP detection). In kind it is cell-based. As to conditions: for β2 Int Act: fraction relative to the maximum activity determined for formoterol, 60 minutes incubation; for EC50: cAMP, test compounds incubated 60 minutes, 300 μM rolipram, read-out: β2 pEC50 (converted). The method, then:
H292 cells were grown in 225 cm2 flasks incubator at 37° C., 5% CO2 in RPMI medium containing, 10% (v/v) FBS (foetal bovine serum) and 2 mM L-glutamine.
Adherent H292 cells were removed from tissue culture flasks by treatment with Accutase™ cell detachment solution for 15 minutes. Flasks were incubated for 15 minutes in a humidified incubator at 37° C., 5% CO2. Detached cells were re-suspended in RPMI media (containing 10% (v/v) FBS and 2 mM L-glutamine) at 0.05×10^6 cells per mL. 5000 cells in 100 μL were added to each well of a tissue-culture-treated 96-well plate and the cells incubated overnight in a humidified incubator at 37° C., 5% CO2. The culture media was removed and cells were washed twice with 100 μL assay buffer and replaced with 50 μL assay buffer (HBSS solution containing 10 mM HEPES pH7.4 and 5 mM glucose). […] Cells were incubated with rolipram for 10 minutes after which time test compounds were added and the cells were incubated for 60 minutes at room temperature. […] The reaction was stopped by removing supernatants, washing once with 100 μL assay buffer and replacing with 50 μL lysis buffer. The cell monolayer was frozen at −80° C. for 30 minutes (or overnight).
The concentration of cAMP (cyclic adenosine monophosphate) in the cell lysate was determined using AlphaScreen™ methodology. The frozen cell plate was thawed for 20 minutes on a plate shaker then 10 μL of the cell lysate was transferred to a 96-well white plate. 40 μL of mixed AlphaScreen™ detection beads pre-incubated with biotinylated cAMP, was added to each well and the plate incubated at room temperature for 10 hours in the dark. The AlphaScreen™ signal was measured using an EnVision spectrophotometer (Perkin-Elmer Inc.) with the recommended manufacturer's settings. cAMP concentrations were determined by reference to a calibration curve determined in the same experiment using standard cAMP concentrations. Concentration response curves for agonists were constructed and data was fitted to a four parameter logistic equation to determine both the pEC50 and Intrinsic Activity.
On the technique in general: In Alpha technology, singlet oxygen from a donor bead excites a nearby acceptor bead.

Experiment [1] concerns the target T2, recombinant human Dopamine Subtype D2s receptors (Homo sapiens, UniProt P14416).
T2 construct: purchased Perkin Elmer
Kind of experiment: Dopamine D2 selectivity assay, inhibition of [3H]-spiperone binding. As to conditions: membranes, [3H]-spiperone 0.16 nM; read-out: D2 bind pIC50 (converted). How it is done: Membranes containing recombinant human Dopamine Subtype D2s receptors were obtained from Perkin Elmer. These were diluted in Assay Buffer ([…] HEPES, 1 mM EDTA, 120 mM NaCl, 0.1% gelatin, pH 7.4) to provide a final concentration of membranes that gave a clear window between maximum and minimum specific binding.
Assays were performed in U-bottomed 96-well polypropylene plates. […] For each assay plate 8 replicates were obtained for [^3H]-spiperone binding in the presence of 30 μL vehicle (10% (v/v) DMSO in Assay Buffer; defining maximum binding) or 30 μL Haloperidol (10 μM final concentration; defining non-specific binding (NSB)). Membranes were then added to achieve a final volume of 300 μL. The plates were incubated for 2 hours at room temperature and then filtered onto PEI coated GF/B filter plates, pre-soaked for 1 hour in Assay Buffer, using a 96-well plate Tomtec cell harvester. Five washes with 250 μL wash buffer (50 mM HEPES, 1 mM EDTA, 120 mM NaCl, pH 7.4) were performed at 4° C. to remove unbound radioactivity. The plates were dried then sealed from underneath using Packard plate sealers and MicroScint-O (50 μL) was added to each well. The plates were sealed (TopSeal A) and filter-bound radioactivity was measured with a scintillation counter (TopCount, Packard BioScience) using a 3-minute counting protocol. Total specific binding (B0) was determined by subtracting the mean NSB from the mean maximum binding. NSB values were also subtracted from values from all other wells.

Experiment [2] addresses T3, recombinant human α1D receptor (Homo sapiens, UniProt P25100).
T3 construct: expressed in transfected cells; host or cells: HEK293
T3 sequence (P25100 1-572): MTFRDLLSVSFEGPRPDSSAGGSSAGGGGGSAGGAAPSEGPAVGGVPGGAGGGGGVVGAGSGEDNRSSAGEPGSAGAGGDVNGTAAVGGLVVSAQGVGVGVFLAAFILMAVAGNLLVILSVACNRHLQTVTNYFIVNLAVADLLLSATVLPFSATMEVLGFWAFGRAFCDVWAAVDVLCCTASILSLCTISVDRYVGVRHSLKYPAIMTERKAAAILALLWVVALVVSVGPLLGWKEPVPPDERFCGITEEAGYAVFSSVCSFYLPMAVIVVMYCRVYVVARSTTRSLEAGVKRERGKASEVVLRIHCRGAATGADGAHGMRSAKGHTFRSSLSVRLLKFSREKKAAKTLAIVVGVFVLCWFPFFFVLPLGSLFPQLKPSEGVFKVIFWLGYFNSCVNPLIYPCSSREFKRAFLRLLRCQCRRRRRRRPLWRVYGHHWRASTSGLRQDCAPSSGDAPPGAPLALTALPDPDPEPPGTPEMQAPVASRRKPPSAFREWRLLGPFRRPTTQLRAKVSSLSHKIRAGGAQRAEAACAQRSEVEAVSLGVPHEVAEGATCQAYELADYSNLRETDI
Kind of experiment: Adrenergic α1D selectivity assay, inhibition of [3H]-prazosin binding. As to conditions: HEK293 membranes, [3H]-prazosin 0.3 nM; read-out: α1 bind pIC50 (converted). How it is done: Membranes were prepared from human embryonic kidney 293 (HEK293) cells expressing recombinant human α1D receptor. These were diluted in Assay Buffer (50 mM HEPES, 1 mM EDTA, 0.1% gelatin, pH 7.4) to provide a final concentration of membranes that gave a clear window between maximum and minimum specific binding.
(§1) Assays were performed in U-bottomed 96-well polypropylene plates. 10 μL [^3H]-prazosin (0.3 nM final concentration) and 10 μL of test compound (10× final concentration) were added to each test well. For each assay plate 8 replicates were obtained for [^3H]-prazosin binding in the presence of 10 μL vehicle (10% (v/v) DMSO in Assay Buffer; defining maximum binding) or 10 μL BMY7378 (10 μM final concentration; defining non-specific binding (NSB)). Membranes were then added to achieve a final volume of 100 μL. The plates were incubated for 2 hours at room temperature and then filtered onto PEI coated GF/B filter plates, pre-soaked for 1 hour in Assay Buffer, using a 96-well plate Tomtec cell harvester. Five washes with 250 μL wash buffer (50 mM HEPES, 1 mM EDTA, pH 7.4) were performed at 4° C. to remove unbound radioactivity. The plates were dried then sealed from underneath using Packard plate sealers and MicroScint-O (50 μL) was added to each well. The plates were sealed (TopSeal A) and filter-bound radioactivity was measured with a scintillation counter (TopCount, Packard BioScience) using a 3-minute counting protocol.
(§2) Total specific binding (B0) was determined by subtracting the mean NSB from the mean maximum binding. NSB values were also subtracted from values from all other wells.

In experiment [3] the target is T4, recombinant human adrenergic beta 1 receptors (Homo sapiens, UniProt P08588).
T4 construct: purchased Euroscreen
Kind of experiment: Adrenergic β1 selectivity assay, inhibition of [125I]-Iodocyanopindolol binding. The note with it: membranes, [125I]-Iodocyanopindolol; read-out: β1 bind pIC50 (converted). The method, then:
Membranes containing recombinant human adrenergic beta 1 receptors were obtained from Euroscreen. These were diluted in Assay Buffer (50 mM HEPES, 1 mM EDTA, 120 mM NaCl, 0.1% gelatin, pH 7.4) to provide a final concentration of membranes that gave a clear window between maximum and minimum specific binding.
as §1, with “10 μL [^3H]-prazosin (0.3 nM final concentration) and 10 μL of test compound (10× final concentration) were added to each test well. For each assay plate 8 replicates were obtained for [^3H]-prazosin binding in the presence of 10 μL vehicle (10% (v/v) DMSO in Assay Buffer; defining maximum binding) or 10 μL BMY7378 (10 μM final concentration; defining non-specific binding (NSB)).” left out, “EDTA, 120 mM NaCl,” for “EDTA,”
as §2

Counter-ions that a name gives are not always drawn.

T1 sequence (P07550 whole entry): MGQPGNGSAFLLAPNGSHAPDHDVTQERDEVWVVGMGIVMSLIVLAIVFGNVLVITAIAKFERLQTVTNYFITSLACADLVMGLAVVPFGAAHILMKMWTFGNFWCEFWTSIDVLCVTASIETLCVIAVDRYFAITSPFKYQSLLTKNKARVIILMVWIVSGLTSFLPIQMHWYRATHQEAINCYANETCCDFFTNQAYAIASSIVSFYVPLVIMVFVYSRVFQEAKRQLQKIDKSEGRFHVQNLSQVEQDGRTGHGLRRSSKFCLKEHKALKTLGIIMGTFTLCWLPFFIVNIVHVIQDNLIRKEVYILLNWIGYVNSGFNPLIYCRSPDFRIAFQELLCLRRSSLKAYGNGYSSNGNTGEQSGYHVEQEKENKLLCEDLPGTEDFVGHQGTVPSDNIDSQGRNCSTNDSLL
T4 sequence (P08588 whole entry): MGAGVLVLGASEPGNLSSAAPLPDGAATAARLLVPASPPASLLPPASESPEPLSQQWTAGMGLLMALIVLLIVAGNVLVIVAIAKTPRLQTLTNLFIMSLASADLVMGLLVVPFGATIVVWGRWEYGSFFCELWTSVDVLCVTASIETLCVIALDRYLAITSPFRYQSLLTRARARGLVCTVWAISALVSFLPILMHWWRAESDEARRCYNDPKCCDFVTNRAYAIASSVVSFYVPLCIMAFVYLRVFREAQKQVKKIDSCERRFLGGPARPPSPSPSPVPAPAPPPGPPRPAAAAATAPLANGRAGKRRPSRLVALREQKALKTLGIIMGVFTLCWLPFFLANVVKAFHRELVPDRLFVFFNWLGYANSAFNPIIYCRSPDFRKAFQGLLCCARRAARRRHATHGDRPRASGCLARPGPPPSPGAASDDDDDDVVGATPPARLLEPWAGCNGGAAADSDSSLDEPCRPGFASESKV
T2 sequence (P14416 1-414 isoform P14416-2): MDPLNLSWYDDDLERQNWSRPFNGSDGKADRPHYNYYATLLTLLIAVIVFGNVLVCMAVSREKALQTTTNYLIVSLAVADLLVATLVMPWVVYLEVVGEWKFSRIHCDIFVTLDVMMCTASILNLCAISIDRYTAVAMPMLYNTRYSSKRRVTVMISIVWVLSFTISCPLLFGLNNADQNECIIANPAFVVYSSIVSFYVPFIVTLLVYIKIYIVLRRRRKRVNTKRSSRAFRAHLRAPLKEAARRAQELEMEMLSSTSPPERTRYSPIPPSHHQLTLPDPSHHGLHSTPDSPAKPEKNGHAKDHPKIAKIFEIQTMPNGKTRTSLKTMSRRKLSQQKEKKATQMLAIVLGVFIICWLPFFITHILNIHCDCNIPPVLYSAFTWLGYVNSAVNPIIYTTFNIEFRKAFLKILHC

In the case of `O=c1[nH]c2c(O)ccc([C@@H](O)CNCCCSCCNCCc3cccc(Cl)c3)c2s1` [Example 33, 7-[(1R)-2-({3-[(2-{[2-(3-Chlorophenyl)ethyl]amino}ethyl)thio]propyl}amino)-1-hydroxyethyl]-4-hydroxy-1,3-benzothiazol-2(3H)-one], the “β2 Int Act” value at Adrenergic β2 turned out to be 1.1. For the same molecule, the IC50 in experiment [1] is 1000 nM; in experiment [2], 39.8 nM.

`O=c1[nH]c2c(O)ccc([C@@H](O)CNCCCSCCOCCc3cccc4ccccc34)c2s1` [Example 1, 4-Hydroxy-7-((1R)-1-hydroxy-2-{[3-({2-[2-(1-naphthyl)ethoxy]ethyl}thio)propyl]-amino}ethyl)-1,3-benzothiazol-2(3H)-one trifluoroacetate]: on Adrenergic β2, the EC50 was 0.1 nM and the “β2 Int Act” value is given as 1. Further, the IC50 in experiment [1] was 200 nM.

For `CCc1ccc(CCNCCCSCCNC[C@H](O)c2ccc(O)c3[nH]c(=O)sc23)cc1` [Example 14, 7-[(1R)-2-({2-[(3-{[2-(4-Ethylphenyl)ethyl]amino}propyl)thio]ethyl}amino)-1-hydroxyethyl]-4-hydroxy-1,3-benzothiazol-2(3H)-one], the IC50 in experiment [3] is 50.1 nM; in experiment [2], 100 nM. Also, the EC50 at Adrenergic β2 is 3.98 nM. In addition, the “β2 Int Act” value at Adrenergic β2 was determined as 0.9.

`C[C@@H](CNCCCSCCNC[C@H](O)c1ccc(O)c2[nH]c(=O)sc12)c1ccccc1` [Example 46, (R)-(+)-7-[(1R)-2-({2-[(3-{[2-(phenyl)propyl]amino}propyl)thio]ethyl}amino)-1-hydroxyethyl]-4-hydroxy-1,3-benzothiazol-2(3H)-one dihydrochloride]: the IC50 in experiment [3] was 79.4 nM; in experiment [1], 1260 nM; in experiment [2] it was 251 nM. For the same molecule, the EC50 on Adrenergic β2 was 0.631 nM. Besides, at Adrenergic β2, the “β2 Int Act” value turned out to be 0.8.

Take `C[C@H](CNCCCSCCNC[C@H](O)c1ccc(O)c2[nH]c(=O)sc12)c1ccccc1` [Example 48, (S)-(−)-7-[(1R)-2-({2-[(3-{[2-(phenyl)propyl]amino}propyl)thio]ethyl}amino)-1-hydroxyethyl]-4-hydroxy-1,3-benzothiazol-2(3H)-one dihydrochloride]: the IC50 is 158 nM in experiment [3], 3980 nM in experiment [1] and 1580 nM in experiment [2]. The EC50 on Adrenergic β2 is 1.26 nM. Further, on Adrenergic β2, the “β2 Int Act” value was 0.9.

Regarding `CC(CNCCCSCCNC[C@H](O)c1ccc(O)c2[nH]c(=O)sc12)c1ccccc1` (mixture of isomers) [Example 44, (+/−)-7-[(1R)-2-({2-[(3-{[2-(phenyl)propyl]amino}propyl)thio]ethyl}amino)-1-hydroxyethyl]-4-hydroxy-1,3-benzothiazol-2(3H)-one dihydrochloride], the values for the IC50 in experiment [3], in experiment [1] and in experiment [2] were 79.4 nM, 12600 nM and 398 nM, respectively. For the same molecule, the EC50 on Adrenergic β2 is 0.631 nM. The “β2 Int Act” value on Adrenergic β2 amounted to 0.8.

Regarding `O=c1[nH]c2c(O)ccc([C@@H](O)CNCCSCCCNCCc3cccc(Cl)c3Cl)c2s1` [Example 38, 7-[(1R)-2-({2-[(3-{[2-(2,3-Dichlorophenyl)ethyl]amino}propyl)thio]ethyl}amino)-1-hydroxyethyl]-4-hydroxy-1,3-benzothiazol-2(3H)-one dihydrochloride], at Adrenergic β2, the EC50 is 1.58 nM and the “β2 Int Act” value was 0.9. For the same molecule, the IC50 in experiment [1] was 398 nM. In addition, in experiment [2], the IC50 was 158 nM.

As for `C[C@H](CNCCSCCCNC[C@H](O)c1ccc(O)c2[nH]c(=O)sc12)c1ccccc1` [Example 29, 4-Hydroxy-7-[(1R)-1-hydroxy-2-({3-[(2-{[(2S)-2-phenylpropyl]amino}ethyl)thio]propyl}amino)ethyl]-1,3-benzothiazol-2(3H)-one], the IC50 in experiment [3] was 25.1 nM; in experiment [1], 3980 nM; in experiment [2], 100 nM. Besides, the EC50 on Adrenergic β2 is 0.316 nM. For the same molecule, at Adrenergic β2, the “β2 Int Act” value was determined as 0.9.
